Assay results: US7763615B2, “Ecteinascidin analogs for use as antitumour agents” (priority 2001, dated 2010)

How the values were obtained:
Assay type in all cases: cell-based
A549 = experiment: cells; conditions: Homo sapiens, A549, 48 h, A549, 48 hours exposure, SRB; for GI50: read-out: GI50; for CC50: read-out: LC50 (the source's name); for IC (TGI): read-out: TGI
Source text: (§1) The finality of these assays is to interrupt the growth of a “in vitro” tumor cell culture by means of a continued exhibition of the cells to the sample to be testing.
(§2) A colorimetric type of assay, using sulphorhodamine B (SRB) reaction has been adapted for a quantitative measurement of cell growth and viability [following the technique described by Philip Skehan, et al. (1990), New colorimetric cytotoxicity assay for anticancer drug screening, J. Natl. Cancer Inst., 82:1107-1112]
(§3) This form of the assay employs 96 well cell culture microplates of 9 mm diameter (Faircloth, 1988; Mosmann, 1983). Most of the cell lines are obtained from American Type Culture Collection (ATCC) derived from different human cancer types.
(§4) Cells are maintained in RPMI 1640 10% FBS, supplemented with 0.1 g/l penicillin and 0.1 g/l streptomycin sulphate and then incubated at 37° C., 5% CO2 and 98% humidity. For the experiments, cells were harvested from subconfluent cultures using trypsin and resuspended in fresh medium before plating.
(§5) Cells are seeded in 96 well microtiter plates, at 5×10^3 cells per well in aliquots of 195 μl medium, and they are allowed to attach to the plate surface by growing in drug free medium for 18 hours. Afterward, samples are added in aliquots of 5 μl in a ranging from 10 to 10^−8 μg/ml, dissolved in DMSO/EtOH/PBS (0.5:0.5:99). After 48 hours exposure, the antitumor effect are measured by the SRB methodology: cells are fixed by adding 50 μl of cold 50% (wt/vol) trichloroacetic acid (TCA) and incubating for 60 minutes at 4° C. Plates are washed with deionized water and dried. One hundred μl of SRB solution (0.4% wt/vol in 1% acetic acid) is added to each microtiter well and incubated for 10 minutes at room temperature. Unbound SRB is removed by washing with 1% acetic acid. Plates are air dried and bound stain is solubilized with Tris buffer. Optical densities are read on a automated spectrophotometric plate reader at a single wavelength of 490 nm.
(§6) The values for mean+/− SD of data from triplicate wells are calculated. Some parameters for cellular responses can be calculated: GI=growth inhibition, TGI=total growth inhibition (cytostatic effect) and LC=cell killing (cytotoxic effect).

HT29 = experiment: cells; conditions: Homo sapiens, HT-29, 48 h, HT29, 48 hours exposure, SRB; for CC50: read-out: LC50 (the source's name)
Source text: as §1, §2, §3, §4, §5, §6

H-MEC-1 = experiment: Inhibition of cells growth by colorimetric assay (SRB), H-MEC-1; conditions: Homo sapiens, H-MEC-1, 48 hours exposure, SRB; for GI50 / IC (TGI): HMEC-1, 48 h; for CC50: HMEC-1, read-out: LC50 (the source's name)
Source text: as §1, §2, §3, §4, §5, §6

SMILES	GI50 (A549)	CC50 (A549)	IC (TGI) (A549)	GI50 (HT29)	IC (TGI) (HT29)	CC50 (HT29)	GI50 (H-MEC-1)	IC (TGI) (H-MEC-1)	CC50 (H-MEC-1)
C=CCOC(=O)Oc1c(C)c2c(c3c1[C@H]1SC[C@]4(NCCc5c4[nH]c4ccccc54)C(=O)COC[C@@H]3N3C1[C@H]1c4c(cc(C)c(OC)c4O)C[C@@H]([C@@H]3O)N1C)OCO2 (stereo partly drawn) [Compound 64]	1.64 nM	110 nM	6.83 nM	1.91 nM	12.5 nM	12500 nM	0.31 nM	12.5 nM	12500 nM
COc1c(C)cc2c(c1O)[C@@H]1C3[C@@H]4SC[C@]5(NCCc6c5[nH]c5ccccc65)C(=O)COC[C@@H](c5c6c(c(C)c(OC(=O)OC(C)(C)C)c54)OCO6)N3[C@@H](O)[C@H](C2)N1C (stereo partly drawn) [Compound 65]	2.05 nM	47.9 nM	6.3 nM	0.856 nM	20.5 nM	12300 nM	0.613 nM	43.5 nM	12300 nM
COc1c(C)cc2c(c1OC(C)(C)C)[C@@H]1C3[C@@H]4SC[C@]5(NCCc6c5[nH]c5ccccc65)C(=O)COC[C@@H](c5c6c(c(C)c(OC(=O)OC(C)(C)C)c54)OCO6)N3[C@@H](O)[C@H](C2)N1C (stereo partly drawn) [Compound 66]	20.9 nM	376 nM	57.5 nM	28 nM	113 nM	11000 nM	20.7 nM	80.4 nM	11000 nM
C=COC(=O)Oc1c(C)c2c(c3c1[C@H]1SC[C@]4(NCCc5c4[nH]c4ccccc54)C(=O)COC[C@@H]3N3C1[C@H]1c4c(cc(C)c(OC)c4O)C[C@@H]([C@@H]3O)N1C)OCO2 (stereo partly drawn) [Compound 67]	0.455 nM	128 nM	2.86 nM	1.9 nM	128 nM	12800 nM	0.521 nM	128 nM	12800 nM
